{
  "source": "PubChem BioAssay AID1963829",
  "about": "(Molecular Pharmacology Branch, DTP, NCI, 2024)",
  "test_system": "935938-334-R-J1-PDC complex spheroid viability",
  "experiment": "Anticancer human tumor 935938-334-R-J1-PDC patient-derived small intestine adenocarcinoma cell line growth inhibition [POLQ]",
  "settings": "for IC50: curve of first compound; for viability, T/C: stronger effect = lower value",
  "procedure,_shortened": "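Patient-derived tumour cells were co-cultured with HUVEC and mesenchymal stem cells as multicellular spheroids at 37 °C. They were treated with POLQ inhibitors (novobiocin, ART-558, RP6685) alone or combined with other agents. Top concentrations were at or near clinical Cmax (otherwise 10 microM; SN-38 at 1 microM), decreasing in half-log steps.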",
  "key": {"[1]": {"settings": "second compound 0.0316 µM, first compound 0.00316 µM"}, "[2]": {"settings": "second compound 0.0316 µM, first compound 0.01 µM"}, "[3]": {"settings": "second compound 0.0316 µM, first compound 0.0316 µM"}, "[4]": {"settings": "second compound 0.0316 µM, first compound 0.1 µM"}, "[5]": {"settings": "second compound 0.0316 µM, first compound 0.316 µM"}, "[6]": {"settings": "second compound 0.0316 µM, first compound 1 µM"}, "[7]": {"settings": "second compound 0.1 µM, first compound 0.00316 µM"}, "[8]": {"settings": "second compound 0.1 µM, first compound 0.01 µM"}, "[9]": {"settings": "second compound 0.1 µM, first compound 0.0316 µM"}, "[10]": {"settings": "second compound 0.1 µM, first compound 0.1 µM"}, "[11]": {"settings": "second compound 0.1 µM, first compound 0.316 µM"}, "[12]": {"settings": "second compound 0.1 µM, first compound 1 µM"}, "[13]": {"settings": "second compound 0.316 µM, first compound 0.00316 µM"}, "[14]": {"settings": "second compound 0.316 µM, first compound 0.01 µM"}, "[15]": {"settings": "second compound 0.316 µM, first compound 0.0316 µM"}, "[16]": {"settings": "second compound 0.316 µM, first compound 0.1 µM"}, "[17]": {"settings": "second compound 0.316 µM, first compound 0.316 µM"}, "[18]": {"settings": "second compound 0.316 µM, first compound 1 µM"}, "[19]": {"settings": "second compound 1 µM, first compound 0.00316 µM"}, "[20]": {"settings": "second compound 1 µM, first compound 0.01 µM"}, "[21]": {"settings": "second compound 1 µM, first compound 0.0316 µM"}, "[22]": {"settings": "second compound 1 µM, first compound 0.1 µM"}, "[23]": {"settings": "second compound 1 µM, first compound 0.316 µM"}, "[24]": {"settings": "second compound 1 µM, first compound 1 µM"}, "[25]": {"settings": "second compound 3.16 µM, first compound 0.00316 µM"}, "[26]": {"settings": "second compound 3.16 µM, first compound 0.01 µM"}, "[27]": {"settings": "second compound 3.16 µM, first compound 0.0316 µM"}, "[28]": {"settings": "second compound 3.16 µM, first compound 0.1 µM"}, "[29]": {"settings": "second compound 3.16 µM, first compound 0.316 µM"}, "[30]": {"settings": "second compound 3.16 µM, first compound 1 µM"}, "[31]": {"settings": "second compound 10 µM, first compound 0.00316 µM"}, "[32]": {"settings": "second compound 10 µM, first compound 0.01 µM"}, "[33]": {"settings": "second compound 10 µM, first compound 0.0316 µM"}, "[34]": {"settings": "second compound 10 µM, first compound 0.1 µM"}, "[35]": {"settings": "second compound 10 µM, first compound 0.316 µM"}, "[36]": {"settings": "second compound 10 µM, first compound 1 µM"}},
  "data": [
    {"compound": "COc1cccc(OCCCN)c1-c1cc(Nc2cnc(C#N)cn2)n[nH]1", "note": "+ COC1C(OC(N)=O)C(O)C(Oc2ccc3c(O)c(NC(=O)c4ccc(O)c(CC=C(C)C)c4)c(=O)oc3c2C)OC1(C)C;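 also: spheroids exposed to drugs for seven days before viability read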;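 as to viability, T/C: 100% = DMSO vehicle control wells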", "values": [
      {"measurement": "IC50", "setting": "second compound 0.0316 µM", "result": 49.6, "unit": "nM"},
      {"measurement": "IC50", "setting": "second compound 0.1 µM", "result": 38.7, "unit": "nM"},
      {"measurement": "IC50", "setting": "second compound 0.316 µM", "result": 47.9, "unit": "nM"},
      {"measurement": "IC50", "setting": "second compound 1 µM", "result": 36.9, "unit": "nM"},
      {"measurement": "IC50", "setting": "second compound 3.16 µM", "result": 36.9, "unit": "nM"},
      {"measurement": "IC50", "setting": "second compound 10 µM", "result": 27.8, "unit": "nM"},
      {"measurement": "viability, T/C", "setting": "[1]", "result": 90.2, "unit": "%"},
      {"measurement": "viability, T/C", "setting": "[2]", "result": 88.9, "unit": "%"},
      {"measurement": "viability, T/C", "setting": "[3]", "result": 65.2, "unit": "%"},
      {"measurement": "viability, T/C", "setting": "[4]", "result": 25.8, "unit": "%"},
      {"measurement": "viability, T/C", "setting": "[5]", "result": 12.1, "unit": "%"},
      {"measurement": "viability, T/C", "setting": "[6]", "result": 9.12, "unit": "%"},
      {"measurement": "viability, T/C", "setting": "[7]", "result": 100, "unit": "%"},
      {"measurement": "viability, T/C", "setting": "[8]", "result": 89.1, "unit": "%"},
      {"measurement": "viability, T/C", "setting": "[9]", "result": 54.5, "unit": "%"},
      {"measurement": "viability, T/C", "setting": "[10]", "result": 25.4, "unit": "%"},
      {"measurement": "viability, T/C", "setting": "[11]", "result": 12.5, "unit": "%"},
      {"measurement": "viability, T/C", "setting": "[12]", "result": 9.92, "unit": "%"},
      {"measurement": "viability, T/C", "setting": "[13]", "result": 89.2, "unit": "%"},
      {"measurement": "viability, T/C", "setting": "[14]", "result": 79.7, "unit": "%"},
      {"measurement": "viability, T/C", "setting": "[15]", "result": 64.2, "unit": "%"},
      {"measurement": "viability, T/C", "setting": "[16]", "result": 26.6, "unit": "%"},
      {"measurement": "viability, T/C", "setting": "[17]", "result": 10.6, "unit": "%"},
      {"measurement": "viability, T/C", "setting": "[18]", "result": 9.51, "unit": "%"},
      {"measurement": "viability, T/C", "setting": "[19]", "result": 113, "unit": "%"},
      {"measurement": "viability, T/C", "setting": "[20]", "result": 85.1, "unit": "%"},
      {"measurement": "viability, T/C", "setting": "[21]", "result": 57.5, "unit": "%"},
      {"measurement": "viability, T/C", "setting": "[22]", "result": 23.7, "unit": "%"},
      {"measurement": "viability, T/C", "setting": "[23]", "result": 11.1, "unit": "%"},
      {"measurement": "viability, T/C", "setting": "[24]", "result": 8.98, "unit": "%"},
      {"measurement": "viability, T/C", "setting": "[25]", "result": 80.7, "unit": "%"},
      {"measurement": "viability, T/C", "setting": "[26]", "result": 89.8, "unit": "%"},
      {"measurement": "viability, T/C", "setting": "[27]", "result": 52, "unit": "%"},
      {"measurement": "viability, T/C", "setting": "[28]", "result": 22.3, "unit": "%"},
      {"measurement": "viability, T/C", "setting": "[29]", "result": 11.1, "unit": "%"},
      {"measurement": "viability, T/C", "setting": "[30]", "result": 9, "unit": "%"},
      {"measurement": "viability, T/C", "setting": "[31]", "result": 84.4, "unit": "%"},
      {"measurement": "viability, T/C", "setting": "[32]", "result": 91.6, "unit": "%"},
      {"measurement": "viability, T/C", "setting": "[33]", "result": 45.3, "unit": "%"},
      {"measurement": "viability, T/C", "setting": "[34]", "result": 15.4, "unit": "%"},
      {"measurement": "viability, T/C", "setting": "[35]", "result": 11.8, "unit": "%"},
      {"measurement": "viability, T/C", "setting": "[36]", "result": 8.31, "unit": "%"}
    ]},
    {"compound": "CCc1c2c(nc3ccc(O)cc13)-c1cc3c(c(=O)n1C2)COC(=O)[C@]3(O)CC", "note": "+ COC1C(OC(N)=O)C(O)C(Oc2ccc3c(O)c(NC(=O)c4ccc(O)c(CC=C(C)C)c4)c(=O)oc3c2C)OC1(C)C", "values": [
      {"measurement": "IC50", "setting": "second compound 0.0316 µM", "result": 16.6, "unit": "nM"},
      {"measurement": "IC50", "setting": "second compound 0.1 µM", "result": 22.6, "unit": "nM"},
      {"measurement": "IC50", "setting": "second compound 0.316 µM", "result": 17.8, "unit": "nM"},
      {"measurement": "IC50", "setting": "second compound 1 µM", "result": 18.2, "unit": "nM"},
      {"measurement": "IC50", "setting": "second compound 3.16 µM", "result": 13.9, "unit": "nM"},
      {"measurement": "IC50", "setting": "second compound 10 µM", "result": 5.3, "unit": "nM"},
      {"measurement": "viability, T/C", "setting": "[1]", "result": 82, "unit": "%"},
      {"measurement": "viability, T/C", "setting": "[2]", "result": 59.3, "unit": "%"},
      {"measurement": "viability, T/C", "setting": "[3]", "result": 38, "unit": "%"},
      {"measurement": "viability, T/C", "setting": "[4]", "result": 29.4, "unit": "%"},
      {"measurement": "viability, T/C", "setting": "[5]", "result": 22.9, "unit": "%"},
      {"measurement": "viability, T/C", "setting": "[6]", "result": 27.8, "unit": "%"},
      {"measurement": "viability, T/C", "setting": "[7]", "result": 75.8, "unit": "%"},
      {"measurement": "viability, T/C", "setting": "[8]", "result": 73.7, "unit": "%"},
      {"measurement": "viability, T/C", "setting": "[9]", "result": 40.1, "unit": "%"},
      {"measurement": "viability, T/C", "setting": "[10]", "result": 29.6, "unit": "%"},
      {"measurement": "viability, T/C", "setting": "[11]", "result": 28.7, "unit": "%"},
      {"measurement": "viability, T/C", "setting": "[12]", "result": 30.5, "unit": "%"},
      {"measurement": "viability, T/C", "setting": "[13]", "result": 68, "unit": "%"},
      {"measurement": "viability, T/C", "setting": "[14]", "result": 63.8, "unit": "%"},
      {"measurement": "viability, T/C", "setting": "[15]", "result": 36.2, "unit": "%"},
      {"measurement": "viability, T/C", "setting": "[16]", "result": 27.3, "unit": "%"},
      {"measurement": "viability, T/C", "setting": "[17]", "result": 29, "unit": "%"},
      {"measurement": "viability, T/C", "setting": "[18]", "result": 22.4, "unit": "%"},
      {"measurement": "viability, T/C", "setting": "[19]", "result": 62.9, "unit": "%"},
      {"measurement": "viability, T/C", "setting": "[20]", "result": 76.8, "unit": "%"},
      {"measurement": "viability, T/C", "setting": "[21]", "result": 31.5, "unit": "%"},
      {"measurement": "viability, T/C", "setting": "[22]", "result": 26.8, "unit": "%"},
      {"measurement": "viability, T/C", "setting": "[23]", "result": 29.3, "unit": "%"},
      {"measurement": "viability, T/C", "setting": "[24]", "result": 22.9, "unit": "%"},
      {"measurement": "viability, T/C", "setting": "[25]", "result": 73.1, "unit": "%"},
      {"measurement": "viability, T/C", "setting": "[26]", "result": 57.4, "unit": "%"},
      {"measurement": "viability, T/C", "setting": "[27]", "result": 31.6, "unit": "%"},
      {"measurement": "viability, T/C", "setting": "[28]", "result": 30.2, "unit": "%"},
      {"measurement": "viability, T/C", "setting": "[29]", "result": 27.8, "unit": "%"},
      {"measurement": "viability, T/C", "setting": "[30]", "result": 28.4, "unit": "%"},
      {"measurement": "viability, T/C", "setting": "[31]", "result": 53.2, "unit": "%"},
      {"measurement": "viability, T/C", "setting": "[32]", "result": 49.2, "unit": "%"},
      {"measurement": "viability, T/C", "setting": "[33]", "result": 34.2, "unit": "%"},
      {"measurement": "viability, T/C", "setting": "[34]", "result": 30.1, "unit": "%"},
      {"measurement": "viability, T/C", "setting": "[35]", "result": 31.8, "unit": "%"},
      {"measurement": "viability, T/C", "setting": "[36]", "result": 31.3, "unit": "%"}
    ]}
  ]
}
